Experiments:
MAGL = target: T1, MAGL (Mus musculus, UniProt O35678); assay: In vitro competitive activity-based protein profiling, mouse MAGL; type: biochemical; conditions: for inhibition at 1 µM: read-out: MAGL % inh. 1 μM (mouse)
T1 construct: mouse brain membrane fraction or cell lysates for mouse assays; from tissue
T1 sequence (O35678 1-303): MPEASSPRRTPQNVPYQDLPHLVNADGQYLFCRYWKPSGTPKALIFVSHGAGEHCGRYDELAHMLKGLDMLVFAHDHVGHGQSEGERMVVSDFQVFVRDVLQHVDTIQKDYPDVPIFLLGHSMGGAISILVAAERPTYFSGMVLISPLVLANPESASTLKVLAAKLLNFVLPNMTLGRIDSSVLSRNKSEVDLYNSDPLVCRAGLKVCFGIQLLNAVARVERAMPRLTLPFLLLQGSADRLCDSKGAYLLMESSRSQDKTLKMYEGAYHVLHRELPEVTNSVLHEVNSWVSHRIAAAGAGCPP
Experimental: (§1) In Vitro Competitive Activity-Based Protein Profiling.
(§2) Proteomes (mouse brain membrane fraction or cell lysates for mouse assays; human prefrontal cortex or cell membrane fractions for human assays) (50 μL, 1.0 mg/mL total protein concentration) were preincubated with varying concentrations of inhibitors at 37° C. After 30 min, FP-Rh or HT-01 (1.0 μL, 50 μM in DMSO) was added and the mixture was incubated for another 30 min at 37° C. Reactions were quenched with SDS loading buffer (15 μL—4×) and run on SDS-PAGE. Following gel imaging, serine hydrolase activity was determined by measuring fluorescent intensity of gel bands corresponding to MAGL and FAAH using ImageJ 1.43u software.

FAAH = target: T2, FAAH (Mus musculus, UniProt O08914); assay: In vitro competitive activity-based protein profiling, mouse FAAH; type: biochemical; conditions: for inhibition at 1 µM: read-out: FAAH % inh. 1 μM (mouse)
T2 construct: mouse brain membrane fraction or cell lysates for mouse assays; from tissue
T2 sequence (O08914 1-579): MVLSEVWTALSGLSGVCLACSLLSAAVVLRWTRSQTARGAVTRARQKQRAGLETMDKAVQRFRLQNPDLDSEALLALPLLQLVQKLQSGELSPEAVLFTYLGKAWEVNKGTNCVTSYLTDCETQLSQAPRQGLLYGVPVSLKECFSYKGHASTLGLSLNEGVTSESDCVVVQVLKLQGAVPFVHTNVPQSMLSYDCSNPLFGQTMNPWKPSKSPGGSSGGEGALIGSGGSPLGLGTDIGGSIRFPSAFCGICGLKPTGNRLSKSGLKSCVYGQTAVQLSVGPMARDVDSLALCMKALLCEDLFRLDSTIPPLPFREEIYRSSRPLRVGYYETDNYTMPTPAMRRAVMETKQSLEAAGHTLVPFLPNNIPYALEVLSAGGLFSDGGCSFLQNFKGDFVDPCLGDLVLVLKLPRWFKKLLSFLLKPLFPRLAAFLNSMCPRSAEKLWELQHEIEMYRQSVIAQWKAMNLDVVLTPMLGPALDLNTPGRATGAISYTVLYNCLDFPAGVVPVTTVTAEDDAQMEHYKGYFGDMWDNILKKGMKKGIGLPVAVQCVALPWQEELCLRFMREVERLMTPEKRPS
Experimental: as §1, §2

inhibition at 1 µM (MAGL) [%] | inhibition at 1 µM (FAAH) [%] | IC50 (MAGL) [nM] | IC50 (FAAH) [nM] | inhibition at 10 µM (MAGL; 10 μM, read-out: MAGL % inh. at 10 μM (mouse)) [%] | inhibition at 10 µM (FAAH; 10 μM, read-out: FAAH % inh. at 10 μM (mouse)) [%] | SMILES
≥ 75 | ≥ 75 | – | – | – | – | O=C(c1cnn(C(=O)N2CC3CN(Cc4cccc(C(F)(F)F)c4)CC3C2)c1)N1CCN(C2CC2)CC1 (stereo not shown) [Example 8, (4-cyclopropylpiperazin-1-yl)(1-(5-(3-(trifluoromethyl)benzyl)octahydropyrrolo[3,4-c]pyrrole-2-carbonyl)-1H-pyrazol-4-yl)methanone]
≥ 75 | ≥ 75 | – | – | – | – | O=C(c1cnn(C(=O)N2CC3CN(Cc4cc(Cl)cc(C(F)(F)F)c4)CC3C2)c1)N1CCCC1 (stereo not shown) [Example 9, (5-(3-chloro-5-(trifluoromethyl)benzyl)hexahydropyrrolo[3,4-c]pyrrol-2(1H)-yl)(4-(pyrrolidine-1-carbonyl)-1H-pyrazol-1-yl)methanone]
≥ 75 | ≥ 75 | – | – | – | – | O=C(c1cnn(C(=O)N2CC3CN(Cc4cc(Cl)cc(C(F)(F)F)c4)CC3C2)c1)N1CCOCC1 (stereo not shown) [Example 10, (5-(3-chloro-5-(trifluoromethyl)benzyl)hexahydropyrrolo[3,4-c]pyrrol-2(1H)-yl)(4-(morpholine-4-carbonyl)-1H-pyrazol-1-yl)methanone]
≥ 75 | ≥ 75 | – | – | – | – | O=C(c1cnn(C(=O)N2CC3CN(Cc4cc(Cl)cc(C(F)(F)F)c4)CC3C2)c1)N1CCN(C2CC2)CC1 (stereo not shown) [Example 11, (5-(3-chloro-5-(trifluoromethyl)benzyl)hexahydropyrrolo[3,4-c]pyrrol-2(1H)-yl)(4-(4-cyclopropylpiperazine-1-carbonyl)-1H-pyrazol-1-yl)methanone]
≥ 75 | ≥ 75 | – | – | – | – | O=C(c1cnn(C(=O)N2CC3CN(Cc4ccc(N5CCOCC5)cc4C(F)(F)F)CC3C2)c1)N1CCCC1 (stereo not shown) [Example 12, (5-(4-morpholino-2-(trifluoromethyl)benzyl)hexahydropyrrolo[3,4-c]pyrrol-2(1H)-yl)(4-(pyrrolidine-1-carbonyl)-1H-pyrazol-1-yl)methanone]
≥ 75 | ≥ 75 | – | – | – | – | O=C(c1cnn(C(=O)N2CC3CN(Cc4ccc(N5CCOCC5)cc4C(F)(F)F)CC3C2)c1)N1CCOCC1 (stereo not shown) [Example 13, (4-(morpholine-4-carbonyl)-1H-pyrazol-1-yl)(5-(4-morpholino-2-(trifluoromethyl)benzyl)hexahydropyrrolo[3,4-c]pyrrol-2(1H)-yl)methanone]
≥ 75 | ≥ 75 | 100 to 1000 | 1000 to 10000 | – | – | O=C(c1cnn(C(=O)N2CC3CN(Cc4ccc(N5CCOCC5)cc4C(F)(F)F)CC3C2)c1)N1CCN(C2CC2)CC1 (stereo not shown) [Example 14, (4-cyclopropylpiperazin-1-yl)(1-(5-(4-morpholino-2-(trifluoromethyl)benzyl)octahydropyrrolo[3,4-c]pyrrole-2-carbonyl)-1H-pyrazol-4-yl)methanone]
≥ 75 | ≥ 75 | – | – | – | – | O=C(c1cnn(C(=O)N2CC3CN(Cc4cccc(C(F)(F)F)c4)CC3C2)c1)N1CCCC1 (stereo not shown) [Example 15, pyrrolidin-1-yl(1-(5-(3-(trifluoromethyl)benzyl)octahydropyrrolo[3,4-c]pyrrole-2-carbonyl)-1H-pyrazol-4-yl)methanone]
≥ 75 | ≥ 75 | 100 to 1000 | ≤ 100 | – | – | NC(=O)c1cnn(C(=O)N2CC3CN(Cc4ccc(Cl)cc4)CC3C2)c1 (stereo not shown) [Example 16, 1-(5-(4-chlorobenzyl)octahydropyrrolo[3,4-c]pyrrole-2-carbonyl)-1H-pyrazole-4-carboxamide]
50 to 75 | ≥ 75 | 1000 to 10000 | ≤ 100 | – | – | CNC(=O)c1cnn(C(=O)N2CC3CN(Cc4ccc(Cl)cc4)CC3C2)c1 (stereo not shown) [Example 17, 1-(5-(4-chlorobenzyl)octahydropyrrolo[3,4-c]pyrrole-2-carbonyl)-N-methyl-1H-pyrazole-4-carboxamide]
≥ 75 | ≥ 75 | ≤ 100 | ≤ 100 | – | – | NC(=O)c1cnn(C(=O)N2CC3CN(Cc4ccc(C(F)(F)F)cc4)CC3C2)c1 (stereo not shown) [Example 18, 1-(5-(4-(trifluoromethyl)benzyl)octahydropyrrolo[3,4-c]pyrrole-2-carbonyl)-1H-pyrazole-4-carboxamide]
≥ 75 | ≥ 75 | 100 to 1000 | ≤ 100 | – | – | CNC(=O)c1cnn(C(=O)N2CC3CN(Cc4ccc(C(F)(F)F)cc4)CC3C2)c1 (stereo not shown) [Example 19, N-methyl-1-(5-(4-(trifluoromethyl)benzyl)octahydropyrrolo[3,4-c]pyrrole-2-carbonyl)-1H-pyrazole-4-carboxamide]
≥ 75 | ≥ 75 | ≤ 100 | ≤ 100 | – | – | NC(=O)c1cnn(C(=O)N2CC3CN(Cc4cc(Cl)ccc4Cl)CC3C2)c1 (stereo not shown) [Example 20, 1-(5-(2,5-dichlorobenzyl)octahydropyrrolo[3,4-c]pyrrole-2-carbonyl)-1H-pyrazole-4-carboxamide]
≥ 75 | ≥ 75 | 100 to 1000 | ≤ 100 | – | – | CNC(=O)c1cnn(C(=O)N2CC3CN(Cc4cc(Cl)ccc4Cl)CC3C2)c1 (stereo not shown) [Example 21, 1-(5-(2,5-dichlorobenzyl)octahydropyrrolo[3,4-c]pyrrole-2-carbonyl)-N-methyl-1H-pyrazole-4-carboxamide]
≥ 75 | ≥ 75 | – | – | – | – | O=C(c1cnn(C(=O)N2CC3CN(Cc4cc(Cl)ccc4Cl)CC3C2)c1)N1CCCC1 (stereo not shown) [Example 22, (5-(2,5-dichlorobenzyl)hexahydropyrrolo[3,4-c]pyrrol-2(1H)-yl)(4-(pyrrolidine-1-carbonyl)-1H-pyrazol-1-yl)methanone]
≥ 75 | ≥ 75 | – | – | – | – | NC(=O)c1cnn(C(=O)N2CC3CN(Cc4cccc(C(F)(F)F)c4)CC3C2)c1 (stereo not shown) [Example 23, 1-(5-(3-(trifluoromethyl)benzyl)octahydropyrrolo[3,4-c]pyrrole-2-carbonyl)-1H-pyrazole-4-carboxamide]
≥ 75 | ≥ 75 | ≤ 100 | ≤ 100 | – | – | CNC(=O)c1cnn(C(=O)N2CC3CN(Cc4cccc(C(F)(F)F)c4)CC3C2)c1 (stereo not shown) [Example 24, N-methyl-1-(5-(3-(trifluoromethyl)benzyl)octahydropyrrolo[3,4-c]pyrrole-2-carbonyl)-1H-pyrazole-4-carboxamide]
≥ 75 | ≥ 75 | ≤ 100 | ≤ 100 | – | – | NC(=O)c1cnn(C(=O)N2CC3CN(Cc4cc(Cl)cc(C(F)(F)F)c4)CC3C2)c1 (stereo not shown) [Example 25, 1-(5-(3-chloro-5-(trifluoromethyl)benzyl)octahydropyrrolo[3,4-c]pyrrole-2-carbonyl)-1H-pyrazole-4-carboxamide]
≥ 75 | ≥ 75 | – | – | – | – | CNC(=O)c1cnn(C(=O)N2CC3CN(Cc4cc(Cl)cc(C(F)(F)F)c4)CC3C2)c1 (stereo not shown) [Example 26, 1-(5-(3-chloro-5-(trifluoromethyl)benzyl)octahydropyrrolo[3,4-c]pyrrole-2-carbonyl)-N-methyl-1H-pyrazole-4-carboxamide]
≥ 75 | ≥ 75 | – | – | – | – | CNC(=O)c1cnn(C(=O)N2CC3CN(Cc4ccc(N5CCOCC5)cc4C(F)(F)F)CC3C2)c1 (stereo not shown) [Example 27, N-methyl-1-(5-(4-morpholino-2-(trifluoromethyl)benzyl)octahydropyrrolo[3,4-c]pyrrole-2-carbonyl)-1H-pyrazole-4-carboxamide]
25 to 50 | ≥ 75 | – | – | – | – | O=C(c1cnn(C(=O)N2CCC3(CCN(Cc4cc(Cl)ccc4Cl)C3)C2)c1)N1CCCC1 (stereo not shown) [Example 28, (1-(7-(2,5-dichlorobenzyl)-2,7-diazaspiro[4.4]nonane-2-carbonyl)-1H-pyrazol-4-yl)(pyrrolidin-1-yl)methanone]
0 to 25 | ≥ 75 | – | – | 100 | 100 | O=C(c1cnn(C(=O)N2CCC3(CCN(Cc4cc(Cl)ccc4Cl)C3)C2)c1)N1CCOCC1 (stereo not shown) [Example 29, (1-(7-(2,5-dichlorobenzyl)-2,7-diazaspiro[4.4]nonane-2-carbonyl)-1H-pyrazol-4-yl)(morpholino)methanone]

Source: patent publication US10385057B2, “Pyrazole compounds and methods of making and using same” (Lundbeck La Jolla Research Center, Inc., priority 2015, dated 2019)
